Results: ChEMBL document CHEMBL4834434, “Discovery of Novel and Potent N-Methyl-d-aspartate Receptor Positive Allosteric Modulators with Antidepressant-like Activity in Rodent Models” (J Med Chem, 2021)
Activity calls are given as the source filed them. No cut-off for these calls is given here.

Key:
Glutamate NMDA receptor = assay: Positive allosteric modulation of C57BL/6 mouse NMDA receptor assessed as potentiation of NMDA-induced current in presence of saturating glutamate by patch-clamp method; format: tissue-based, Brain
[1] = target: Glutamate NMDA receptor (Mus musculus) (UniProt P35436+Q91ZU9+Q03391+P35438+Q01097+Q01098+A2AIR5); assay: Positive allosteric modulation of C57BL/6 mouse NMDA receptor assessed as fold change in compound potentiated NMDA-induced current relative to NMDA current alone in presence of saturating glutamate by patch-clamp method; format: tissue-based; conditions: Brain, filed as positive allosteric modulator
[2] = Brain to blood partition coefficient of the compound; format: physicochemical, tissue-based; conditions: read-out: logBB (converted)
Mus musculus [3] = assay: Antidepressant activity in ICR mouse assessed as decrease in immobility time at 30 mg/kg, ip measured after 26 mins by forced swim test; format: functional, organism-based
Mus musculus [4] = assay: Antidepressant activity in ICR mouse aassessed as inhibition of apomorphine-induced climbing behaviour at 10 mg/kg, ip administered prior to APO challenge and measured after 30 mins; format: functional, organism-based
[5] = target: D(2) dopamine receptor (Homo sapiens) (UniProt P14416); assay: Displacement of [3H]-methylspiperone from human dopamine D2 receptor expressed in CHO cells incubated for 30 mins by liquid scintillation counting analysis; format: cell-based
Sequence of D(2) dopamine receptor (Homo sapiens) (P14416 whole entry): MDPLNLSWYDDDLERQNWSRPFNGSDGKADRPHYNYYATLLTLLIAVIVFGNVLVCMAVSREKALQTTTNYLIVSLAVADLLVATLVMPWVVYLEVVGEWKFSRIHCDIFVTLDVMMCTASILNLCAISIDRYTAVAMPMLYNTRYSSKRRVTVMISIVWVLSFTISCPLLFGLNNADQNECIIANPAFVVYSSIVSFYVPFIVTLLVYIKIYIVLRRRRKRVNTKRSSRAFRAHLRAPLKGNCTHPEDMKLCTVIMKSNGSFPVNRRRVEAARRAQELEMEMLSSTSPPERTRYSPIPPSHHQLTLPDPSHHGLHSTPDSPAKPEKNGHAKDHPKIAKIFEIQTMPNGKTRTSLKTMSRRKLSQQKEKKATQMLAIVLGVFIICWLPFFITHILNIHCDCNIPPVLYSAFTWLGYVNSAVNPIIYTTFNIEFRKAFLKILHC

[6] = target: D(3) dopamine receptor (Homo sapiens) (UniProt P35462); assay: Displacement of [3H]-methylspiperone from human dopamine D3 receptor expressed in CHO cells incubated for 60 mins by liquid scintillation counting analysis; format: cell-based
Sequence of D(3) dopamine receptor (Homo sapiens) (P35462 whole entry): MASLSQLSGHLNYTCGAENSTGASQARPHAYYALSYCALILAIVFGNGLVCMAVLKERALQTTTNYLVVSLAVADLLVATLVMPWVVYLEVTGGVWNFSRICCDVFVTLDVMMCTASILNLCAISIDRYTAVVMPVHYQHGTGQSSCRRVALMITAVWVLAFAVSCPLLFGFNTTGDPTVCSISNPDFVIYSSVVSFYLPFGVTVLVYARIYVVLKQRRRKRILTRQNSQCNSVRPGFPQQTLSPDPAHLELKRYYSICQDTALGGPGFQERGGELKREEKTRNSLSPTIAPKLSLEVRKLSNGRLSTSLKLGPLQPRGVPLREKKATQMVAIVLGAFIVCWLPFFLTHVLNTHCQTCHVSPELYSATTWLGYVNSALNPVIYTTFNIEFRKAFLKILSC

[7] = target: 5-hydroxytryptamine receptor 1B (Homo sapiens) (UniProt P28222); assay: Displacement of [3H]-GR125743 from 5HT1BR (unknown origin) expressed in CHO cells; format: cell-based
Sequence of 5-hydroxytryptamine receptor 1B (Homo sapiens) (P28222 whole entry): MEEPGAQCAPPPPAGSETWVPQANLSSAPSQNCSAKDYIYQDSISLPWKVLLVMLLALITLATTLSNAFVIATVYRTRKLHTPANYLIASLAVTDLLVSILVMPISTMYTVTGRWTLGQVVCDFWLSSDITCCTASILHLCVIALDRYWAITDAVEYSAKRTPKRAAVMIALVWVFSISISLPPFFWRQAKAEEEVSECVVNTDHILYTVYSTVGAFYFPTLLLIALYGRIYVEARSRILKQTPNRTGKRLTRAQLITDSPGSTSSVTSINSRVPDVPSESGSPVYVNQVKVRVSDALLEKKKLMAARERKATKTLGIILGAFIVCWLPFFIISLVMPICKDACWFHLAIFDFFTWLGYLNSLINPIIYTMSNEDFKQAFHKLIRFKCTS

[8] = Half life in ICR mouse at 3 mg/kg, iv measured up to 24 hrs by HPLC-MS/MS analysis; format: ADME, organism-based; conditions: in vivo
[9] = Clearance in ICR mouse at 3 mg/kg, iv measured up to 24 hrs by HPLC-MS/MS analysis; format: ADME, organism-based; conditions: in vivo
[10] = Volume of distribution at steady state in ICR mouse at 3 mg/kg, iv measured up to 24 hrs by HPLC-MS/MS analysis; format: ADME, organism-based; conditions: in vivo, read-out: Vdss
[11] = Drug concentration in ICR mouse brain at 3 mg/kg, iv measured at 0.5 hrs by LC-MS/MS analysis; format: ADME, organism-based; conditions: read-out: Ct
[12] = Cmax in ICR mouse at 10 mg/kg, po measured up to 24 hrs by HPLC-MS/MS analysis; format: ADME, organism-based; set-up: route oral, dose 10 mg/kg, time <=24; conditions: in vivo
[13] = MRT in ICR mouse at 10 mg/kg, po measured up to 24 hrs by HPLC-MS/MS analysis; format: ADME, organism-based; conditions: in vivo
[14] = Drug concentration in ICR mouse brain at 10 mg/kg, po measured at 0.5 hrs by LC-MS/MS analysis; format: ADME, organism-based; conditions: read-out: Ct
[15] = Drug concentration in ICR mouse plasma at 10 mg/kg, po measured at 0.5 hrs by LC-MS/MS analysis; format: ADME, organism-based
[16] = Drug concentration in ICR mouse plasma at 10 mg/kg, po measured at 2 hrs by LC-MS/MS analysis; format: ADME, organism-based
[17] = Cmax in Sprague-Dawley rat at 10 mg/kg, po measured up to 1280 mins by HPLC-MS/MS analysis; format: ADME, organism-based; set-up: route oral, dose 10 mg/kg, time <=1280; conditions: in vivo
[18] = AUC (0 to t) in Sprague-Dawley rat at 10 mg/kg, po measured up to 1280 mins by HPLC-MS/MS analysis; format: ADME, organism-based; set-up: route oral, dose 10 mg/kg, time <=1280; conditions: in vivo
[19] = Drug concentration in Sprague-Dawley rat brain at 3 mg/kg, iv measured at 20 mins by LC-MS/MS analysis; format: ADME, organism-based; conditions: read-out: Ct
[20] = Drug concentration in Sprague-Dawley rat brain at 3 mg/kg, iv measured at 80 mins by LC-MS/MS analysis; format: ADME, organism-based; conditions: read-out: Ct
[21] = Ratio of drug concentration in brain to plasma in Sprague-Dawley rat at 3 mg/kg, iv measured at 20 mins by LC-MS/MS analysis; format: ADME, organism-based; conditions: read-out: BPR
[22] = Ratio of drug concentration in brain to plasma in Sprague-Dawley rat at 3 mg/kg, iv measured at 80 mins by LC-MS/MS analysis; format: ADME, organism-based; conditions: read-out: BPR
[23] = Cytotoxicity against African green monkey Vero cells assessed as cell growth inhibition at 60 uM measured after 48 hrs by CCK8 assay relative to control; format: cell-based; conditions: chlorocebus sabaeus
[24] = Cytotoxicity against mouse L929 cells assessed as cell growth inhibition at 120 uM measured after 48 hrs by CCK8 assay relative to control; format: cell-based
[25] = Cytotoxicity against human HEK293 cells assessed as cell growth inhibition at 120 uM measured after 48 hrs by CCK8 assay relative to control; format: cell-based
[26] = Cytotoxicity against human HEK293 cells assessed as cell growth inhibition at 60 uM measured after 48 hrs by CCK8 assay relative to control; format: cell-based
hERG (KCNH2) [27] = target: T1, hERG (KCNH2) (Homo sapiens, UniProt Q12809); assay: Inhibition of human ERG expressed in CHO cells at 100 uM with holding potential at -80 to -60 mV for 500s followed by raise in potential at +30 mV for 2 sec and subsequent repolarization to -60 mV for 2 sec by whole-cell patch clamp method relative to control; format: cell-based; conditions: CHO cells expressing human ERG
T1 sequence (Q12809 whole entry): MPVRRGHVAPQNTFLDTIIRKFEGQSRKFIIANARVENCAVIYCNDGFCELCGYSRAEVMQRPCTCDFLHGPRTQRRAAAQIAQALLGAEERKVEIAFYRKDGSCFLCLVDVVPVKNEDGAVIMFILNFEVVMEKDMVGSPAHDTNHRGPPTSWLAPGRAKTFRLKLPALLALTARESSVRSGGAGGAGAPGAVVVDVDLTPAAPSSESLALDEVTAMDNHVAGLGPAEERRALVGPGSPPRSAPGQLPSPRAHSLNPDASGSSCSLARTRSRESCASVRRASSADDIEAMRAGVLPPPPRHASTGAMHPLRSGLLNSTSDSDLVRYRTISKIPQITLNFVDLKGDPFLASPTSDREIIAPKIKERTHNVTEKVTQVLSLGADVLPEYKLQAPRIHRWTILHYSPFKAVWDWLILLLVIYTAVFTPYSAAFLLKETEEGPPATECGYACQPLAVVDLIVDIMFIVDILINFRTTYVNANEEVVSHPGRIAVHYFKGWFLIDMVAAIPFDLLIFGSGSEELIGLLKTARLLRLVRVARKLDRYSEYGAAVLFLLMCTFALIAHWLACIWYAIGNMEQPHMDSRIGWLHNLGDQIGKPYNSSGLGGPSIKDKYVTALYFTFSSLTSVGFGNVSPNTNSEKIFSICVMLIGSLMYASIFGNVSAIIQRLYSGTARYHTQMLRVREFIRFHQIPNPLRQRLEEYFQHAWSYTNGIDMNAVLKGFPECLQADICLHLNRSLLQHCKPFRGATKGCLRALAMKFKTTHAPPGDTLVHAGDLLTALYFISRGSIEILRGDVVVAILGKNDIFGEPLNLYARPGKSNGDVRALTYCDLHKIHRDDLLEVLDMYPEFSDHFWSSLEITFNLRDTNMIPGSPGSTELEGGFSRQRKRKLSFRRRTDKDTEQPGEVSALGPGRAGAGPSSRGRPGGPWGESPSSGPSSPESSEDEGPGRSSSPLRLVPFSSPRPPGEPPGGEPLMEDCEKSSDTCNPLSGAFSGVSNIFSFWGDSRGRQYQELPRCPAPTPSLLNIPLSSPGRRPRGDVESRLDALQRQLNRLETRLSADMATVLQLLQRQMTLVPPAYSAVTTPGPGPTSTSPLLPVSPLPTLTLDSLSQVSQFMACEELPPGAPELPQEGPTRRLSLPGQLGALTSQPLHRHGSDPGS

hERG (KCNH2) [28] = target: T1, hERG (KCNH2); assay: Inhibition of human ERG expressed in CHO cells at 30 uM with holding potential at -80 to -60 mV for 500s followed by raise in potential at +30 mV for 2 sec and subsequent repolarization to -60 mV for 2 sec by whole-cell patch clamp method relative to control; format: cell-based; conditions: CHO cells expressing human ERG
[29] = Acute toxicity in ip dosed ICR mouse assessed as lethal dose measured after 24 hrs; format: organism-based; conditions: in vivo
[30] = […] in ICR mouse assessed as body weight gain at 30 mg/kg, po administered for 28 days; format: organism-based; conditions: in vivo, 672 h, time 28 day

Compound `Cc1cc(C)n(Cc2ccc(C(=O)Nc3ccc(Cl)c(Cl)c3)s2)n1` has an EC50 (Glutamate NMDA receptor) of 2.4 µM, a fold change (FC) [1] of 14.3 and a Kp [2] of 1.26. The Activity (Mus musculus [3]) was “Active”, the Activity (Mus musculus [4]) was “inactive” and the inhibition [5] was “inactive”. For the same compound, the inhibition [6] was “inactive”, the inhibition [7] was “inactive” and the half-life [8] was 2.8 h. The clearance [9] was 33.3 mL/min/kg, the Vd [10] was 8.3 L/kg and the concentration at 0.5 h [11] was 160 ng/mL. The Cmax [12] was 760 ng/mL, the MRT [13] was 4.2 h and the concentration at 0.5 h [14] was 281 ng/mL. It also gave a concentration at 0.5 h [15] of 760 ng/mL, a concentration at 2 h [16] of 451 ng/mL and a Cmax [17] of 190 ng/mL. The AUC(0-t) at 1280 min [18] was 503 ng·h/mL, the concentration at 20 min [19] was 2190 ng/g and the concentration at 1.333 h [20] was 354 ng/g. It also gave a Kp at 20 min [21] of 1.5, a Kp at 1.333 h [22] of 1.5 and an inhibition at 48 h, 60 µM [23] of 21.9%. The inhibition at 48 h, 120 µM [24] was -4.6%, the inhibition at 48 h, 120 µM [25] was -14% and the inhibition at 48 h, 60 µM [26] was -5.2%. It also gave an inhibition at 2 s, 100 µM (hERG (KCNH2) [27]) of 45%, an inhibition at 2 s, 30 µM (hERG (KCNH2) [28]) of 35.4% and an LD50 at 24 h [29] of 1500 mg/kg. For the same compound, the Activity [30] was “Non-Toxic”.
